Laboratory results taken from the supplement of paper PMC11451515.

System: SEM cells
Test: cell viability relative to DMSO control; higher = less cytotoxic
Conditions: 48 h
Outline: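 NOMO1 or SEM cells were plated at 500 cells/well and P12-Ichikawa cells at 1000 cells/well in 1536-well plates (5 μl), after each leukemia line had been adapted for at least four passages in each medium. Pin dosing delivered library compounds in DMSO at 11 threefold concentrations, 47 μM to 0.79 nM. CellTiter-Glo One luminescence was read after 48 h at 37°C. Viability is reported as a per-plate percentage of DMSO wells, with cell-free wells as background.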

[1] = HPLM + 10% dialyzed FBS, 0.000781 µM
[2] = HPLM + 10% dialyzed FBS, 0.00234 µM
[3] = HPLM + 10% dialyzed FBS, 0.00702 µM
[4] = HPLM + 10% dialyzed FBS, 0.0211 µM
[5] = HPLM + 10% dialyzed FBS, 0.0632 µM
[6] = HPLM + 10% dialyzed FBS, 0.19 µM
[7] = HPLM + 10% dialyzed FBS, 0.569 µM
[8] = HPLM + 10% dialyzed FBS, 1.71 µM
[9] = HPLM + 10% dialyzed FBS, 5.12 µM
[10] = HPLM + 10% dialyzed FBS, 15.4 µM
[11] = HPLM + 10% dialyzed FBS, 46.1 µM
[12] = RPMI 5 mM glucose + 10% FBS, 0.000781 µM
[13] = RPMI 5 mM glucose + 10% FBS, 0.00234 µM
[14] = RPMI 5 mM glucose + 10% FBS, 0.00702 µM
[15] = RPMI 5 mM glucose + 10% FBS, 0.0211 µM
[16] = RPMI 5 mM glucose + 10% FBS, 0.0632 µM
[17] = RPMI 5 mM glucose + 10% FBS, 0.19 µM
[18] = RPMI 5 mM glucose + 10% FBS, 0.569 µM
[19] = RPMI 5 mM glucose + 10% FBS, 1.71 µM
[20] = RPMI 5 mM glucose + 10% FBS, 5.12 µM
[21] = RPMI 5 mM glucose + 10% FBS, 15.4 µM
[22] = RPMI 5 mM glucose + 10% FBS, 46.1 µM
[23] = RPMI 5 mM glucose + 10% dialyzed FBS, 0.000781 µM
[24] = RPMI 5 mM glucose + 10% dialyzed FBS, 0.00234 µM
[25] = RPMI 5 mM glucose + 10% dialyzed FBS, 0.00702 µM
[26] = RPMI 5 mM glucose + 10% dialyzed FBS, 0.0211 µM
[27] = RPMI 5 mM glucose + 10% dialyzed FBS, 0.0632 µM
[28] = RPMI 5 mM glucose + 10% dialyzed FBS, 0.19 µM
[29] = RPMI 5 mM glucose + 10% dialyzed FBS, 0.569 µM
[30] = RPMI 5 mM glucose + 10% dialyzed FBS, 1.71 µM
[31] = RPMI 5 mM glucose + 10% dialyzed FBS, 5.12 µM
[32] = RPMI 5 mM glucose + 10% dialyzed FBS, 15.4 µM
[33] = RPMI 5 mM glucose + 10% dialyzed FBS, 46.1 µM

SMILES	cell viability [1]	cell viability [2]	cell viability [3]	cell viability [4]	cell viability [5]	cell viability [6]	cell viability [7]	cell viability [8]	cell viability [9]	cell viability [10]	cell viability [11]	cell viability [12]	cell viability [13]	cell viability [14]	cell viability [15]	cell viability [16]	cell viability [17]	cell viability [18]	cell viability [19]	cell viability [20]	cell viability [21]	cell viability [22]	cell viability [23]	cell viability [24]	cell viability [25]	cell viability [26]	cell viability [27]	cell viability [28]	cell viability [29]	cell viability [30]	cell viability [31]	cell viability [32]	cell viability [33]
COc1ccc(-c2cc3c(C)nc(N)nc3n([C@H]3CC[C@H](OCCO)CC3)c2=O)cn1	99.4%	91.8%	84.6%	77.2%	70.5%	64.9%	47%	32.6%	24.3%	6.37%	1%	105%	105%	97.8%	99.8%	79.8%	62.1%	55.3%	29.1%	29.6%	9.56%	1.08%	79.7%	86.1%	75.4%	75.3%	69.7%	58.9%	46.4%	34.7%	29.3%	14.6%	1.67%
CC(=O)[C@H]1CC[C@H]2[C@@H]3C/C=C4/C[C@@H](O)CC[C@]4(C)[C@H]3CC[C@]12C	100%	91.7%	96.8%	103%	113%	115%	114%	106%	113%	114%	115%	113%	116%	126%	117%	124%	116%	126%	121%	123%	118%	119%											
Clc1ccc(C(Cn2ccnc2)OCc2ccc(Sc3ccccc3)cc2)c(Cl)c1 (stereo not drawn)	88.8%	74.9%	99.2%	96.4%	98.2%	79.4%	93.6%	77.9%	82.1%	87.1%	81.1%	110%	104%	109%	108%	116%	106%	105%	92.2%	77%	92.7%	95.8%	101%	95.7%	107%	122%	130%	100%	103%	93.5%	81%	96.8%	75.7%
CC=CC1=C(C(=O)O)N2C(=O)[C@@H](NC(=O)[C@H](N)c3ccc(O)cc3)[C@H]2SC1.O	71.1%	70.5%	79.2%	92.5%	91.4%	81.3%	90.1%	83.9%	72.8%	91.6%	82.1%	86.4%	96.4%	93.8%	97.7%	90.9%	92.9%	98.8%	115%	86.6%	105%	94.6%	84.8%	97%	98.4%	115%	109%	86.1%	110%	110%	84.7%	112%	114%
C[C@@H](Oc1ccc2[nH]nc(/C=C/c3cnn(CCO)c3)c2c1)c1c(Cl)cncc1Cl	90.3%	86.4%	85.9%	85.9%	85.6%	58.6%	31.3%	37.2%	20%	14.8%	30.9%	118%	136%	103%	103%	108%	75.5%	32.7%	42.8%	15.6%	13.8%	21%	82.4%	84.6%	82%	73.5%	80%	50.9%	17.5%	33.7%	12.4%	10.9%	20.9%
COC1=CC(=C2C(=O)N(COC/3=C/C(=O)N4\C=C/C=C(OCCN5CCCCC5)\C4=N3)[S+]([O-])(=O)C2=C1)C(C)C	116%	119%	128%	131%	103%	135%	108%	83.4%	148%	128%	114%	119%	132%	125%	129%	134%	134%	106%	71%	137%	143%	102%	105%	113%	120%	123%	114%	125%	82.9%	63.5%	113%	114%	97.5%
NNC(=O)c1ccncc1	84.6%	79.5%	73.6%	92.9%	93.8%	86.6%	29.2%	42.5%	95.7%	92.3%	82.4%	107%	98.6%	97.2%	98.7%	116%	115%	37.3%	46.7%	91.6%	94.9%	87.6%	107%	110%	92.4%	97.2%	98.1%	105%	37.2%	34.9%	101%	95.6%	82.8%
CN(C)c1ccccc1CN1CCCN(Cc2ccccc2N(C)C)C1c1ccncc1	81.3%	91.2%	86.8%	23%	95.2%	94.9%	92.5%	92.6%	112%	97.1%	83.3%	75.5%	85.3%	102%	15%	104%	99.3%	101%	93.9%	93.4%	5.51%	49.4%	73.4%	79.7%	95.1%	18.1%	117%	111%	113%	98.3%	98.2%	87.8%	80%
